Assay: assays described herein (not specified)

For O=[N+]([O-])c1ccccc1SNc1ccc2c(c1)OCO2 [Compound 75, 5-{[(2-nitrophenyl)thio]amino}-1,3-benzodioxole], which “active in the assays described herein” value is on record?
The value was “active”.

Which “active in the assays described herein” value does the source give for Cn1cccc1C=NN1CCN(Cc2cccc3ccccc23)CC1 [Compound 83, N-[(1-methyl-1H-pyrrol-2-yl)methylene]-4-(1-naphthylmethyl)-1-piperazinamine] here?
Its value is “active”.

Which “active in the assays described herein” value does the source give for Oc1ccc(C(c2c[nH]c3ccccc23)c2c[nH]c3ccccc23)cc1O [Compound 86, 4-(di-1H-indol-3-ylmethyl)-1,2-benzenediol] here?
Its value is “active”.

With O=C(c1ccc(Br)cc1)c1ccc(N2CCCCC2)c([N+](=O)[O-])c1 [Compound 92, (4-bromophenyl)[3-nitro-4-(1-piperidinyl)phenyl]methanone] as the compound, how does the “active in the assays described herein” value read?
The value was “active”.

Which “active in the assays described herein” value does the source give for CN(C)c1ccc2sc(S)nc2c1 [Compound 95, 5-(dimethylamino)-1,3-benzothiazole-2-thiol] here?
The value was “active”.

Which “active in the assays described herein” value does the source give for CCOc1ccc(C(=O)c2ccc(N3CC(C)OC(C)C3)c([N+](=O)[O-])c2)cc1 (stereo not shown) [Compound 102, [4-(2,6-dimethyl-4-morpholinyl)-3-nitrophenyl](4-ethoxyphenyl)methanone] here?
Its value is “active”.

For O=C(c1cccs1)N1CCN(c2ccc([N+](=O)[O-])c(N3CCCC3)c2)CC1 [Compound 114, 1-[4-nitro-3-(1-pyrrolidinyl)phenyl]-4-(2-thienylcarbonyl)piperazine], which “active in the assays described herein” value is on record?
Its value is “active”.

From patent US10098887B2, “Antiviral compounds and methods of use thereof” (Trana Discovery, Inc., priority 2010, dated 2018)
